From patent US20230067378A1, “COMPOSITIONS AND METHODS FOR THE TREATMENT OF ESTROGEN-DEPENDENT DISORDERS” (ObsEva S.A., priority 2018, published 2023)

System: pre-menopausal women
Assay: uterine bleeding pattern, clinical trial of compound (VI) 200 mg per day (choline salt) with add-back therapy (1.0 mg E2, 0.5 mg norethindrone acetate)
Assay type: in vivo, human
Method: The experiments described in this example were conducted as part of a single-center, open-label, randomized, parallel-group clinical trial in 32 pre-menopausal women. Following screening assessments, and during the second half of the menstrual cycle, women received norethindrone (5 mg, three-times daily for 10 days) to synchronize menstrual cycles. After menstrual cycle synchronization, subjects were randomized with a 1:1 ratio to one of two treatment arms: (i) a cohort receiving once-daily administration of compound (VI) (200 mg per day, administered in the form of a choline salt) with concurrent onset of add-back therapy administration for 10 weeks (“Concurrent-ABT”), or (ii) a cohort receiving pre-treatment with compound (VI) (200 mg per day, administered in the form of a choline salt) for 4 weeks followed by combined daily administration of compound (VI) and add-back therapy (“Delayed-ABT”). The add-back therapy used in these experiments contained 1.0 mg of E2 and 0.5 mg of norethindrone acetate, and was administered to subjects once daily.
The main treatment outcomes and endpoints measured during these experiments included (i) a qualitative assessment of uterine blood loss, which was recorded on a daily basis throughout the study by characterizing each subject's bleeding pattern using one of the following four categories: “no bleeding,” “spotting” (light staining, dark blood, no sanitary protection needed or only panty liner), “bleeding” (1-4 completely soiled maxi sanitary towels or 1-8 soiled tampons or equivalent combination of the two), or “heavy bleeding” (>4 completely soiled maxi sanitary towels or >8 soiled tampons or equivalent combination of the two); (ii) a bi-weekly assessment of each subject's circulating E2 concentration; (iii) a bi-weekly assessment of each subject's circulating progesterone concentration (measured using a validated commercial chemiluminescence immunoassay method (Elecsys Progesterone III, Roche, Burgess Hill, UK)); (iv) the pharmacokinetic profile of compound (VI) and the add-back therapy; and (v) adverse events.

[1] = Days 29-42, treatment A (Concurrent-ABT), N=14
[2] = Days 29-42, treatment B (Delayed-ABT), N=15
[3] = Days 43-56, Overall (A+B), N=29
[4] = Days 43-56, treatment A (Concurrent-ABT), N=14
[5] = Days 43-56, treatment B (Delayed-ABT), N=15
[6] = Days 57-70, Overall (A+B), N=29
[7] = Days 57-70, treatment A (Concurrent-ABT), N=14
[8] = Days 57-70, treatment B (Delayed-ABT), N=15
[9] = Delayed-ABT cohort, after add-back therapy was initiated in week 5

With `COc1cc(F)c(-n2c(=O)[nH]c3csc(C(=O)O)c3c2=O)cc1OCc1c(OC)ccc(F)c1F` [Compound (VI), 3-[2-fluoro-5-(2,3-difluoro-6-methoxybenzyloxy)4-methoxyphenyl]-2,4-dioxo-1,2,3,4-tetrahydrothieno [3,4d]pyrimidine-5-carboxylic acid] the “No Bleeding or Spotting, subjects (n), Plasma Estradiol Level 20-50 pg/mL” value [1] was 9, the “No Bleeding or Spotting, subjects (n), Plasma Estradiol Level <20 pg/mL” value [1] was 1 and the “No Bleeding or Spotting, subjects (n), Plasma Estradiol Level >50 pg/mL” value [1] was 3. For the same molecule, the “No Bleeding, subjects (%), Plasma Estradiol Level 20-50 pg/mL” value [1] was “(50.0%)”, the “No Bleeding, subjects (%), Plasma Estradiol Level <20 pg/mL” value [1] was “(7.1%)” and the “No Bleeding, subjects (%), Plasma Estradiol Level >50 pg/mL” value [1] was “(21.4%)”. For the same molecule, the “No Bleeding, subjects (n), Plasma Estradiol Level 20-50 pg/mL” value [1] was 7, the “No Bleeding, subjects (n), Plasma Estradiol Level <20 pg/mL” value [1] was 1 and the “No Bleeding, subjects (n), Plasma Estradiol Level >50 pg/mL” value [1] was 3. The “No Bleeding or Spotting, subjects (%), Plasma Estradiol Level 20-50 pg/mL” value [2] was “(46.7%)”, the “No Bleeding or Spotting, subjects (%), Plasma Estradiol Level <20 pg/mL” value [2] was “(20.0%)” and the “No Bleeding or Spotting, subjects (%), Plasma Estradiol Level >50 pg/mL” value [2] was “(20.0%)”. For the same molecule, the “No Bleeding or Spotting, subjects (n), Plasma Estradiol Level 20-50 pg/mL” value [2] was 7, the “No Bleeding or Spotting, subjects (n), Plasma Estradiol Level <20 pg/mL” value [2] was 3 and the “No Bleeding or Spotting, subjects (n), Plasma Estradiol Level >50 pg/mL” value [2] was 3. For the same molecule, the “No Bleeding, subjects (%), Plasma Estradiol Level 20-50 pg/mL” value [2] was “(33.3%)”, the “No Bleeding, subjects (%), Plasma Estradiol Level <20 pg/mL” value [2] was “(20.0%)” and the “No Bleeding, subjects (%), Plasma Estradiol Level >50 pg/mL” value [2] was “(13.3%)”. For the same molecule, the “No Bleeding, subjects (n), Plasma Estradiol Level 20-50 pg/mL” value [2] was 5, the “No Bleeding, subjects (n), Plasma Estradiol Level <20 pg/mL” value [2] was 3 and the “No Bleeding, subjects (n), Plasma Estradiol Level >50 pg/mL” value [2] was 2. The “No Bleeding or Spotting, subjects (%), Plasma Estradiol Level 20-50 pg/mL” value [3] was “(51.7%)”, the “No Bleeding or Spotting, subjects (%), Plasma Estradiol Level <20 pg/mL” value [3] was “(13.8%)” and the “No Bleeding or Spotting, subjects (%), Plasma Estradiol Level >50 pg/mL” value [3] was “(17.2%)”. For the same molecule, the “No Bleeding or Spotting, subjects (n), Plasma Estradiol Level 20-50 pg/mL” value [3] was 15, the “No Bleeding or Spotting, subjects (n), Plasma Estradiol Level <20 pg/mL” value [3] was 4 and the “No Bleeding or Spotting, subjects (n), Plasma Estradiol Level >50 pg/mL” value [3] was 5. For the same molecule, the “No Bleeding, subjects (%), Plasma Estradiol Level 20-50 pg/mL” value [3] was “(37.9%)”, the “No Bleeding, subjects (%), Plasma Estradiol Level <20 pg/mL” value [3] was “(10.3%)” and the “No Bleeding, subjects (%), Plasma Estradiol Level >50 pg/mL” value [3] was “(13.8%)”. The “No Bleeding, subjects (n), Plasma Estradiol Level 20-50 pg/mL” value [3] was 11, the “No Bleeding, subjects (n), Plasma Estradiol Level <20 pg/mL” value [3] was 3 and the “No Bleeding, subjects (n), Plasma Estradiol Level >50 pg/mL” value [3] was 4. The “No Bleeding or Spotting, subjects (%), Plasma Estradiol Level 20-50 pg/mL” value [4] was “(57.1%)”, the “No Bleeding or Spotting, subjects (%), Plasma Estradiol Level <20 pg/mL” value [4] was “(7.1%)” and the “No Bleeding or Spotting, subjects (%), Plasma Estradiol Level >50 pg/mL” value [4] was “(21.4%)”. For the same molecule, the “No Bleeding or Spotting, subjects (n), Plasma Estradiol Level 20-50 pg/mL” value [4] was 8, the “No Bleeding or Spotting, subjects (n), Plasma Estradiol Level <20 pg/mL” value [4] was 1 and the “No Bleeding or Spotting, subjects (n), Plasma Estradiol Level >50 pg/mL” value [4] was 3. The “No Bleeding, subjects (%), Plasma Estradiol Level 20-50 pg/mL” value [4] was “(50.0%)”, the “No Bleeding, subjects (%), Plasma Estradiol Level <20 pg/mL” value [4] was “(7.1%)” and the “No Bleeding, subjects (%), Plasma Estradiol Level >50 pg/mL” value [4] was “(21.4%)”. The “No Bleeding, subjects (n), Plasma Estradiol Level 20-50 pg/mL” value [4] was 7, the “No Bleeding, subjects (n), Plasma Estradiol Level <20 pg/mL” value [4] was 1 and the “No Bleeding, subjects (n), Plasma Estradiol Level >50 pg/mL” value [4] was 3. For the same molecule, the “No Bleeding or Spotting, subjects (%), Plasma Estradiol Level 20-50 pg/mL” value [5] was “(46.7%)”, the “No Bleeding or Spotting, subjects (%), Plasma Estradiol Level <20 pg/mL” value [5] was “(20.0%)” and the “No Bleeding or Spotting, subjects (%), Plasma Estradiol Level >50 pg/mL” value [5] was “(13.3%)”. The “No Bleeding or Spotting, subjects (n), Plasma Estradiol Level 20-50 pg/mL” value [5] was 7, the “No Bleeding or Spotting, subjects (n), Plasma Estradiol Level <20 pg/mL” value [5] was 7 and the “No Bleeding or Spotting, subjects (n), Plasma Estradiol Level >50 pg/mL” value [5] was 2. For the same molecule, the “No Bleeding, subjects (%), Plasma Estradiol Level 20-50 pg/mL” value [5] was “(26.7%)”, the “No Bleeding, subjects (%), Plasma Estradiol Level <20 pg/mL” value [5] was “(13.3%)” and the “No Bleeding, subjects (%), Plasma Estradiol Level >50 pg/mL” value [5] was “(6.7%)”. For the same molecule, the “No Bleeding, subjects (n), Plasma Estradiol Level 20-50 pg/mL” value [5] was 4, the “No Bleeding, subjects (n), Plasma Estradiol Level <20 pg/mL” value [5] was 2 and the “No Bleeding, subjects (n), Plasma Estradiol Level >50 pg/mL” value [5] was 1. The “No Bleeding or Spotting, subjects (%), Plasma Estradiol Level 20-50 pg/mL” value [6] was “(48.3%)”, the “No Bleeding or Spotting, subjects (%), Plasma Estradiol Level <20 pg/mL” value [6] was “(20.7%)” and the “No Bleeding or Spotting, subjects (%), Plasma Estradiol Level >50 pg/mL” value [6] was “(13.8%)”. The “No Bleeding or Spotting, subjects (n), Plasma Estradiol Level 20-50 pg/mL” value [6] was 14, the “No Bleeding or Spotting, subjects (n), Plasma Estradiol Level <20 pg/mL” value [6] was 6 and the “No Bleeding or Spotting, subjects (n), Plasma Estradiol Level >50 pg/mL” value [6] was 4. For the same molecule, the “No Bleeding, subjects (%), Plasma Estradiol Level 20-50 pg/mL” value [6] was “(41.4%)”, the “No Bleeding, subjects (%), Plasma Estradiol Level <20 pg/mL” value [6] was “(20.7%)” and the “No Bleeding, subjects (%), Plasma Estradiol Level >50 pg/mL” value [6] was “(10.3%)”. For the same molecule, the “No Bleeding, subjects (n), Plasma Estradiol Level 20-50 pg/mL” value [6] was 12, the “No Bleeding, subjects (n), Plasma Estradiol Level <20 pg/mL” value [6] was 6 and the “No Bleeding, subjects (n), Plasma Estradiol Level >50 pg/mL” value [6] was 3. For the same molecule, the “No Bleeding or Spotting, subjects (%), Plasma Estradiol Level 20-50 pg/mL” value [7] was “(50.0%)”, the “No Bleeding or Spotting, subjects (%), Plasma Estradiol Level <20 pg/mL” value [7] was “(21.4%)” and the “No Bleeding or Spotting, subjects (%), Plasma Estradiol Level >50 pg/mL” value [7] was “(21.4%)”. For the same molecule, the “No Bleeding or Spotting, subjects (n), Plasma Estradiol Level 20-50 pg/mL” value [7] was 7, the “No Bleeding or Spotting, subjects (n), Plasma Estradiol Level <20 pg/mL” value [7] was 3 and the “No Bleeding or Spotting, subjects (n), Plasma Estradiol Level >50 pg/mL” value [7] was 3. For the same molecule, the “No Bleeding, subjects (%), Plasma Estradiol Level 20-50 pg/mL” value [7] was “(42.9%)”, the “No Bleeding, subjects (%), Plasma Estradiol Level <20 pg/mL” value [7] was “(21.4%)” and the “No Bleeding, subjects (%), Plasma Estradiol Level >50 pg/mL” value [7] was “(21.4%)”. The “No Bleeding, subjects (n), Plasma Estradiol Level 20-50 pg/mL” value [7] was 6, the “No Bleeding, subjects (n), Plasma Estradiol Level <20 pg/mL” value [7] was 3 and the “No Bleeding, subjects (n), Plasma Estradiol Level >50 pg/mL” value [7] was 3. For the same molecule, the “No Bleeding or Spotting, subjects (%), Plasma Estradiol Level 20-50 pg/mL” value [8] was “(46.7%)”, the “No Bleeding or Spotting, subjects (%), Plasma Estradiol Level <20 pg/mL” value [8] was “(20.0%)” and the “No Bleeding or Spotting, subjects (%), Plasma Estradiol Level >50 pg/mL” value [8] was “(6.7%)”. For the same molecule, the “No Bleeding or Spotting, subjects (n), Plasma Estradiol Level 20-50 pg/mL” value [8] was 7, the “No Bleeding or Spotting, subjects (n), Plasma Estradiol Level <20 pg/mL” value [8] was 3 and the “No Bleeding or Spotting, subjects (n), Plasma Estradiol Level >50 pg/mL” value [8] was 1. The “No Bleeding, subjects (%), Plasma Estradiol Level 20-50 pg/mL” value [8] was “(40.0%)”, the “No Bleeding, subjects (%), Plasma Estradiol Level <20 pg/mL” value [8] was “(20.0%)” and the “No Bleeding, subjects (%), Plasma Estradiol Level >50 pg/mL” value [8] was “(0.0%)”. The “No Bleeding, subjects (n), Plasma Estradiol Level 20-50 pg/mL” value [8] was 6, the “No Bleeding, subjects (n), Plasma Estradiol Level <20 pg/mL” value [8] was 3 and the “No Bleeding, subjects (n), Plasma Estradiol Level >50 pg/mL” value [8] was 0. For the same molecule, the “uterine bleeding / amenorrhea” value (Delayed-ABT cohort, Compound (VI) alone (first 4 weeks), FIG. 1A) was “amenorrhea in all subjects by week 5”, the “bleeding, frequency” value [9] was ≤ 8% and the “spotting, frequency” value [9] was ≤ 11%. The “women in amenorrhea within 5 days of treatment” value (Delayed-ABT group) was ~20%, the women in amenorrhea (Delayed-ABT group, last 4 weeks of treatment, p=0.03) was 40% and the “Uterine Bleeding Pattern: amenorrhea” value (Delayed-ABT, Weeks 2-4, achieved in week 5) was “almost 100% amenorrhea (achieved in week 5)”. For the same molecule, the “Uterine Bleeding Pattern: onset of spotting and bleeding” value (Delayed-ABT, Weeks 6-10) was “Spotting and bleeding began after 1 week of add-”.
